# Experimental data as given in patent US9150546B2, “Triazine derivative and pharmaceutical composition comprising the same” (SHIONOGI & CO., LTD., priority 2009, dated 2015).
# Target: human P2X3 receptor (Homo sapiens (Human), UniProt P56373)
# Assay: P2X3 receptor inhibition, ATP-evoked Fluo-3 fluorescence (FDSS 3000)
# Assay type: cell-based
# Settings: C6BU-1 cell transfected with human P2X3 receptor gene
# Sequence of human P2X3 receptor (P56373 whole entry): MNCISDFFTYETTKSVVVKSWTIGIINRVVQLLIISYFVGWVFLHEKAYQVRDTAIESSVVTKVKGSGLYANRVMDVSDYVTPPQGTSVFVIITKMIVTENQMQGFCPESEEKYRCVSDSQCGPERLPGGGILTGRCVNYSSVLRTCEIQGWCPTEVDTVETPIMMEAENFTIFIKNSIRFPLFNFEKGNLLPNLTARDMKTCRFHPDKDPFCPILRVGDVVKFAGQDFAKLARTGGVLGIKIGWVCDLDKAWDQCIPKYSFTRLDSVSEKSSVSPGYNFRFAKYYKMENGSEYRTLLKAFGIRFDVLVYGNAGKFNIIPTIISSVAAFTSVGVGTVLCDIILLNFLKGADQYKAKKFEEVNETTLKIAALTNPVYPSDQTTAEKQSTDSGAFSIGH
row,Structure (SMILES),IC50 [nM]
1,CCOc1ccc(/N=c2\[nH]c(=O)n(C[C@H](C)C(=O)O)c(=O)n2Cc2ccc(Cl)cc2)cc1 [I-535],52
2,CCOc1ccc(/N=c2\[nH]c(=O)n(C[C@H](C)C(=O)O)c(=O)n2Cc2ccc(Cl)cc2)cc1C [I-536],46
3,CC(C)Oc1ccc(/N=c2\[nH]c(=O)n(C[C@H](C)C(=O)O)c(=O)n2Cc2ccc(Cl)cc2)cc1 [I-537],19
4,Cc1cc(/N=c2\[nH]c(=O)n(C[C@H](C)C(=O)O)c(=O)n2Cc2ccc(Cl)cc2)ccc1OC(C)C [I-538],16
5,CCOc1ccc(/N=c2\[nH]c(=O)n(C[C@H](C)C(=O)O)c(=O)n2Cc2ccc(Cl)cc2)cc1Cl [I-539],7
6,Cc1cc2cc(/N=c3\[nH]c(=O)n(C[C@H](C)C(=O)O)c(=O)n3Cc3ccc(Cl)cc3)ccc2o1 [I-540],27
7,CC(C)Oc1ccc(/N=c2\[nH]c(=O)n(CC(C)(C)C(=O)O)c(=O)n2Cc2ccc(Cl)cc2)cc1 [I-541],58
8,CCOc1ccc(/N=c2\[nH]c(=O)n(CC(C)(C)C(=O)O)c(=O)n2Cc2ccc(Cl)cc2)cc1 [I-542],96
9,CC(C)(Cn1c(=O)[nH]/c(=N\c2ccc(OC(F)F)cc2)n(Cc2ccc(Cl)cc2)c1=O)C(=O)O [I-543],172
10,CSc1ccc(/N=c2\[nH]c(=O)n(CC(C)(C)C(=O)O)c(=O)n2Cc2ccc(Cl)cc2)cc1 [I-544],601
11,CC(C)Oc1ccc(Nc2nc(=O)n(CCOC3CCCCO3)c(=O)n2Cc2ccc(Cl)cc2)cc1F (stereo not shown) [I-545],6
12,CC(C)Oc1ccc(/N=c2\n(C)c(=O)n(CCOC3CCCCO3)c(=O)n2Cc2ccc(Cl)cc2)cc1F (stereo not shown) [I-546],459
13,COC(=O)C(C)(C)Cn1c(=O)[nH]/c(=N\c2ccc(OC(C)C)c(Cl)c2)n(CC2CCCCC2)c1=O [I-547],11
14,COC(=O)[C@@H](C)Cn1c(=O)[nH]/c(=N\c2ccc(OC(C)C)c(Cl)c2)n(CC2CCCCC2)c1=O [I-548],12
15,COC(=O)C(C)(C)Cn1c(=O)[nH]/c(=N\c2ccc(OC(C)C)c(Cl)c2)n(CC2CCCCCC2)c1=O [I-549],19
16,COC(=O)C(C)(C)Cn1c(=O)[nH]/c(=N\c2ccc(OC(C)C)c(Cl)c2)n(CC2CCCC2)c1=O [I-550],33
17,CC(C)Oc1ccc(/N=c2\[nH]c(=O)n(CC(C)(C)C(=O)O)c(=O)n2CC2CCCCC2)cc1Cl [I-551],34
18,CC(C)Oc1ccc(/N=c2\[nH]c(=O)n(C[C@H](C)C(=O)O)c(=O)n2CC2CCCCC2)cc1Cl [I-552],23
19,CC(C)Oc1ccc(/N=c2\[nH]c(=O)n(CC(C)(C)C(=O)O)c(=O)n2CC2CCCCCC2)cc1Cl [I-553],34

row,Structure (SMILES),IC50 [nM]
1,CC(C)Oc1ccc(/N=c2\[nH]c(=O)n(CC(C)(C)C(=O)O)c(=O)n2CC2CCCC2)cc1Cl [I-554],139
2,COC(=O)[C@@H](C)Cn1c(=O)[nH]/c(=N\c2ccc(OC(C)C)c(C)c2)n(CC2CCCCC2)c1=O [I-555],13
3,COC(=O)C[C@@H](C)n1c(=O)[nH]/c(=N\c2ccc(OC(C)C)c(Cl)c2)n(Cc2ccc(Cl)cc2)c1=O [I-556],5
4,COC(=O)C[C@@H](C)n1c(=O)[nH]/c(=N\c2ccc(OC(C)C)c(C)c2)n(Cc2ccc(Cl)cc2)c1=O [I-557],19
5,COC(=O)[C@H](C)Cn1c(=O)[nH]/c(=N\c2ccc3oc(C)cc3c2)n(Cc2ccc(Cl)cc2)c1=O [I-558],5
6,Cc1cc(/N=c2\[nH]c(=O)n(C[C@H](C)C(=O)O)c(=O)n2CC2CCCCC2)ccc1OC(C)C [I-559],97
7,COC(=O)C[C@@H](C)n1c(=O)[nH]/c(=N\c2ccc(OC(C)C)c(F)c2)n(Cc2ccc(Cl)cc2)c1=O [I-560],7
8,CC(C)Oc1ccc(/N=c2\[nH]c(=O)n([C@H](C)CC(=O)O)c(=O)n2Cc2ccc(Cl)cc2)cc1Cl [I-561],8
9,CC(C)Oc1ccc(/N=c2\[nH]c(=O)n([C@H](C)CC(=O)O)c(=O)n2Cc2ccc(Cl)cc2)cc1F [I-562],27
10,Cc1cc(/N=c2\[nH]c(=O)n([C@H](C)CC(=O)O)c(=O)n2Cc2ccc(Cl)cc2)ccc1OC(C)C [I-563],40
11,Cc1cc2cc(/N=c3\[nH]c(=O)n(C[C@@H](C)C(=O)O)c(=O)n3Cc3ccc(Cl)cc3)ccc2o1 [I-564],48
12,CC(C)Oc1ccc(Nc2nc(OCCO)nc(=O)n2Cc2ccc(Cl)cc2)cc1F [II-002],79
13,CC(C)Oc1ccc(Nc2nc(OCC(CO)CO)nc(=O)n2Cc2ccc(Cl)cc2)cc1F [II-008],943
14,CC(C)Oc1ccc(/N=c2\[nH]c(OCC(=O)O)nc(=O)n2Cc2ccc(Cl)cc2)cc1Cl [II-009],34
15,CC(C)Oc1ccc(/N=c2\[nH]c(OCC(C)(C)C(=O)O)nc(=O)n2Cc2ccc(Cl)cc2)cc1Cl [II-010],349
16,CC(C)Oc1ccc(/N=c2\[nH]c(N3CCCC3=O)nc(=O)n2Cc2ccc(Cl)cc2)cc1Cl [II-012],568
17,CCN(CC)c1nc(=O)n(Cc2ccc(Cl)cc2)/c(=N/c2ccc(OC(C)C)c(Cl)c2)[nH]1 [II-013],430
18,CCOc1nc(=O)n(Cc2ccc(Cl)cc2)/c(=N/c2ccc(OC(C)C)c(Cl)c2)[nH]1 [II-014],254
